The text below walks through data of PubChem BioAssay (NCI).

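48-hour exposure; five concentrations; linearly interpolated endpoints. Here, GI50 denotes the concentration required for 50% inhibition of growth. TGI marks complete inhibition of growth.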 Bounds are passed on as bounds.

Test in all cases: growth of human tumour cells (NCI), 48 h
Experiment [1] relates to A498 renal.
Experiment [2] relates to HT29 colon.
Experiment [3] deals with K-562 leukemia.
Experiment [4] deals with LOX IMVI melanoma.
Experiment [5] relates to NCI-H23 lung.
Experiment [6] relates to NCI/ADR-RES ovarian.
Experiment [7] has as its system PC-3 prostate.
The test system of experiment [8] is SR leukemia.
For experiment [9], the system named is OVCAR-4 ovarian.
For experiment [10], the system named is UACC-257 melanoma.

On to `COc1cc2c3c(cccc3c1)C(=O)N(CCN1CCCC1)C2=O`, for which the GI50 in experiment [1] was 1.96 µM; in [2], 1.79 µM; in [3], 3.62 µM; in experiment [4], 1.68 µM; in [5], 2.49 µM; in experiment [6], 2.25 µM. Also, the GI50 was 2.91 µM in experiment [7] and 1.47 µM in [8]. Besides, the TGI is 3.69 µM in experiment [1]; 20.2 µM in experiment [2]; over 100 µM in experiment [3]; 4.42 µM in [4]; 8.21 µM in [5]; 8.04 µM in experiment [6]. Further, the TGI in [7] was 11.9 µM; in experiment [8], over 100 µM.
Turning to `C#Cc1cnc(=O)n(C2CC(O)C(CO)O2)c1` (stereo not drawn), the GI50 in experiment [1], in experiment [3], in [4], in [5], in experiment [6] and in experiment [9] was over 100 µM each time. Also, the GI50 in experiment [7] is 3.36 µM; in experiment [8], 91.5 µM; in experiment [10], over 54.5 µM. Moreover, the TGI in experiment [1], in [3], in experiment [4], in experiment [5], in [6] and in experiment [9] was over 100 µM in each case. Also, the TGI in experiment [7] is 11.3 µM; in experiment [8], over 100 µM; in experiment [10], 98.1 µM.
In the case of `COc1c(C2CC(=O)Nc3c2cnn3Cc2ccco2)cc2c(c1OC)OCO2` (stereo not drawn), the GI50 was 0.21 µM in experiment [1]; 0.372 µM in experiment [2]; 0.434 µM in experiment [3]; 0.864 µM in experiment [4]; 0.674 µM in [5]; 1.08 µM in [6]. For the same compound, the GI50 in [7] is 0.559 µM; in experiment [8], 0.437 µM. The TGI in experiment [1] was 0.932 µM; in [2], over 100 µM; in experiment [3], over 100 µM; in experiment [4], over 100 µM; in experiment [5], over 100 µM; in [6], over 100 µM. Moreover, the TGI in experiment [9], in [7] and in [8] was over 100 µM each time.
As for `O=C(c1cccs1)c1c(C(F)(F)F)n([O-])c2ccccc2[n+]1=O`, the GI50 was 0.79 µM in experiment [1]; 1.08 µM in experiment [2]; 1.64 µM in [3]; 0.448 µM in experiment [4]; 0.788 µM in experiment [5]; 0.677 µM in experiment [6]. Further, the GI50 was 0.941 µM in [9], 0.448 µM in experiment [7] and 2.56 µM in [8]. The TGI in [1] was 2.4 µM; in experiment [2], 4.13 µM; in [3] it was 8.77 µM; in [4] it was 1.12 µM; in experiment [5] it was 1.73 µM; in [6], 1.94 µM. Also, the TGI in experiment [9] came to 3.09 µM; in [7] it was 2.24 µM; in experiment [8], 6.03 µM.
Turning to `Oc1ccccc1/C=N/Nc1ccc2ccccc2n1`, the GI50 in experiment [1] is 7.03 µM; in experiment [2], 9.46 µM; in [3], 3.18 µM; in experiment [5] it was 3.36 µM; in experiment [6], 1.95 µM; in [9] it was 2.42 µM. The results for the GI50 in experiment [7], in experiment [8] and in [10] were 4.5 µM, 4.35 µM and 3.14 µM, respectively. For the same compound, the TGI was over 100 µM in experiment [1]; over 100 µM in [2]; over 100 µM in experiment [3]; over 100 µM in [5]; over 100 µM in experiment [6]; 18.6 µM in experiment [9]. The TGI in experiment [7] is over 100 µM; in [8] it was over 100 µM; in experiment [10], 9.57 µM.
As for `CSc1nc(SC)c2c(CN=[N+]=[N-])c(Br)n(Cc3ccccc3)c2n1`, the TGI in experiment [1], in experiment [2], in [4], in [5], in [6] and in experiment [9] was over 100 µM throughout. For the same compound, the TGI in experiment [7] and in experiment [8] was over 100 µM each time.
For the compound `CCC(C)C1NC(=O)c2nc(oc2-c2ccccc2)-c2csc(n2)-c2csc(n2)-c2nc(oc2C)-c2coc(n2)CNC(=O)C(C(C)CC)NC1=O` (stereo not drawn), the GI50 was 0.16 µM in [1]; 0.04 µM in [5]; 0.278 µM in experiment [6]; 0.0258 µM in [9]; under 0.0137 µM in experiment [7]; 0.0327 µM in experiment [8]. The TGI in experiment [1] was determined as 0.343 µM; in experiment [5], 0.155 µM; in experiment [6], 2.38 µM; in experiment [9], 0.0982 µM; in [7], 0.116 µM; in experiment [8], 0.212 µM.
As to `C=C1CCC2C(/C=C(\C)CCC1O)OC(=O)C2C` (stereo not drawn), the GI50 in experiment [2], in [3], in experiment [4], in experiment [5], in [6] and in experiment [9] was over 100 µM each time. Further, the GI50 in [7], in [8] and in experiment [10] was over 100 µM throughout. The TGI in experiment [2], in [3], in [4], in [5], in experiment [6] and in [9] was over 100 µM each time. The TGI in experiment [7], in experiment [8] and in experiment [10] was over 100 µM throughout.
For the compound `Cc1nn(-c2ccc(S(=O)(=O)[O-])cc2)c([O-])c1N=[N+](C)c1ccc(-c2ccc(N=Nc3ccc4c(S(=O)(=O)[O-])cc(S(=O)(=O)[O-])c(N)c4c3[O-])c([O-])c2)cc1[O-].[Cu+2].[Cu+2].[Na+]`, the GI50 in [1], in [2], in experiment [3], in experiment [5], in [6] and in experiment [9] was over 100 µM each time. The GI50 in experiment [7], in [8] and in experiment [10] was over 100 µM in each case. The TGI in [1], in experiment [2], in experiment [3], in [5], in experiment [6] and in [9] was over 100 µM in each case. Further, the TGI in experiment [7], in experiment [8] and in experiment [10] was over 100 µM in each case.
